The source of these data is patent publication US8580516B2, “Methods and compositions for direct detection of DNA damage” (University of Chicago, priority 2008, dated 2013).

One data set deals with mammalian cells. The conditions noted are these: via misincorporation and/or mispairing during replication; cited from earlier work.
Another data set deals with HL60 cells. As to the kind of experiment: In vitro differentiation of HL60 cells to neutrophils, CD11b flow cytometry. The format is cell-based. The conditions noted are these: 1 μM, five days, FITC anti-human CD11b flow cytometry. As to the method:
HL60 cells were grown to confluence (1×10^6 cells/ml) in Roswell Park Memorial Institute media (“RPMI”) 1640 media supplemented with 10% fetal bovine serum, 1% penicillin/streptomycin and 2 mM L-glutamine at 37° C. in 5% CO2 and treated with ethanol carrier, 1 μM ATRA or 1 μM ATRA, 6 nM Vitamin D3 and 30 ng/ml G-CSF for five days.
A general note: Flow cytometry measures light scatter and fluorescence of single cells or particles in a stream.

For data set [1] the following is noted: Privat and Sowers 1996; cited from earlier work.
Another data set relates to several cell lines. The note with it: cited from earlier work.

On to `O=Cc1cn([C@H]2C[C@H](O)[C@@H](COP(=O)(O)OP(=O)(O)OP(=O)(O)O)O2)c(=O)[nH]c1=O` [5-FodUTP, 5-formyl deoxyuridine triphosphate], for which the “mutations induced in cells” value with mammalian cells is “induces both transition and transversion mutations”.
Take `CC1=C(/C=C/C(C)=C/C=C/C(C)=C/C(=O)O)C(C)(C)CCC1` [ATRA, all-trans retinoic acid]: in the data set on HL60 cells, the “expression of CD11b” value is “increased expression of CD11b”.
In the case of `O=c1ccn([C@@H]2O[C@H](CO)[C@@H](O)[C@H]2O)c(=O)[nH]1` [uridine], in data set [1], the pKa (in general, the pH at which an ionisable group is half protonated) is recorded as 9.4.
With `O=Cc1cn([C@H]2C[C@H](O)[C@@H](CO)O2)c(=O)[nH]c1=O` [5-FodU, 5-formyldeoxyuridine], the half-inhibitory concentration (IC50) (in general, the concentration at which inhibition is half-maximal) in the data set with several cell lines (5-FodU fed to tissue culture cells, several cell lines, read-out: IC50 (toxicity)) is about 1000 nM. The “toxicity in cells lacking thymidine kinase or thymidylate synthetase” value in the data set with several cell lines (cells lacking thymidine kinase or thymidylate synthetase) is reported as “lost”. Further, the pKa in data set [1] was 6.8.
